Laboratory results as given in patent US20150126530A1, “Novel Substituted Imidazopyrimidines as Gpbar1 Receptor Modulators” (Torrent Pharmaceuticals Limited., priority 2011, published 2015).

Biological target: T1, human TGR5 (Homo sapiens, UniProt Q8TDU6)
T1 construct: host or cells: CHO cells (ATCC)
T1 sequence (Q8TDU6 1-330): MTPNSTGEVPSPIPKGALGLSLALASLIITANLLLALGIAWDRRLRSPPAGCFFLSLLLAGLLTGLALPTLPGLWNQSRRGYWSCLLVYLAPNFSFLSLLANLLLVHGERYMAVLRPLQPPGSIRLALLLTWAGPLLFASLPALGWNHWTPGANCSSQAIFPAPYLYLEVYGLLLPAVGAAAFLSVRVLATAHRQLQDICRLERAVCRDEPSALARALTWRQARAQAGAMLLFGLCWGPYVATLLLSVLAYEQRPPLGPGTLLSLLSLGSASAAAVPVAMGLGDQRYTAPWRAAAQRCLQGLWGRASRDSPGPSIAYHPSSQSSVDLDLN
Experiment: cAMP Responsive Element (CRE)-Reporter Assay
Assay type: cell-based
Details: luciferase activity relative to vehicle control, five hours, CHO cells transfected with human TGR5 and CRE-luciferase
Description: (A) cAMP Responsive Element (CRE)-Reporter Assay:
CHO cells (ATCC) were transfected with human TGR5 (oriGene) and CRE-luciferase reporter vector. Transfected cells were treated with vehicle control or test compounds (Conc 10 μM) for five hours and then lysed. Cell lysates were monitored for luciferase acivity. Increase in luciferase activity is considered as a result of TGR5 activation. Results were expressed as fold induction as compared to vehicle control.
Results are summarized in Table 2 where, + indicates 1.5-2 fold while ++, +++, ++++ indicate 2-3 fold, 3-4 fold, and >4 fold induction respectively relative to vehicle control when tested at 10 μM concentration.

| SMILES | fold induction at 10 µM |
| --- | --- |
| CN(C(=O)c1c(-c2ccc3c(c2)OCO3)nc2ncccn12)c1ccc(Cl)cc1 [compound 29, 2-(1,3-benzodioxol-5-yl)-N-(4-chlorophenyl)-N-methylimidazo[1,2-a]pyrimidine-3-carboxamide] | 3 to 4 |
| CN(C(=O)c1c(Oc2ccccc2)nc2ncccn12)c1ccc(Cl)cc1 [compound 47, N-(4-chlorophenyl)-N-methyl-2-phenoxyimidazo[1,2-a]pyrimidine-3-carboxamide] | 3 to 4 |
| CN(C(=O)c1c(-c2ccccn2)nc2ncccn12)c1ccc2c(c1)CCC2 [compound 17, N-(2,3-dihydro-1H-inden-5-yl)-N-methyl-2-(pyridin-2-yl)imidazo[1,2-a]pyrimidine-3-carboxamide] | 2 to 3 |
| CN(C(=O)c1c(Oc2ccc(Cl)cc2)nc2ncccn12)c1ccc(F)cc1 [compound 51, 2-(4-chlorophenoxy)-N-(4-fluorophenyl)-N-methylimidazo[1,2-a]pyrimidine-3-carboxamide] | 2 to 3 |
| CN(C(=O)c1c(-c2ccc(-c3ccccc3)cc2)nc2ncccn12)c1ccc2c(c1)CCC2 [compound 9, 2-(biphenyl-4-yl)-N-(2,3-dihydro-1H-inden-5-yl)-N-methylimidazo[1,2-a]pyrimidine-3-carboxamide] | 2 to 3 |
| CN(C(=O)c1c(-c2ccc(Cl)cc2)nc2ncccn12)c1ccc(S(=O)(=O)N(C)C)cc1 [compound 24, 2-(4-chlorophenyl)-N-[4-(dimethylsulfamoyl)phenyl]-N-methylimidazo[1,2-a]pyrimidine-3-carboxamide] | 2 to 3 |
| CN(C(=O)c1c(-c2ccc(-c3ccccc3)cc2)nc2ncccn12)c1ccc(Cl)cc1 [compound 8, 2-(biphenyl-4-yl)-N-(4-chlorophenyl)-N-methylimidazo[1,2-a]pyrimidine-3-carboxamide] | 3 to 4 |
| CN(C(=O)c1c(-c2ccc(Cl)cc2)nc2ncccn12)c1ccc2c(c1)CCC2 [Compound no. 4, 2-(4-chlorophenyl)-N-(2,3-dihydro-1H-inden-5-yl)-N-methylimidazo[1,2-a]pyrimidine-3-carboxamide] | 3 to 4 |
| COc1ccc(N(C)C(=O)c2c(-c3ccc(Cl)cc3)nc3ncccn23)cc1OC [compound 19, 2-(4-chlorophenyl)-N-(3,4-dimethoxyphenyl)-N-methylimidazo[1,2-a]pyrimidine-3-carboxamide] | 2 to 3 |
| COc1ccc(N(C)C(=O)c2c(Oc3ccc(F)cc3)nc3ncccn23)cc1 [compound 52, 2-(4-fluorophenoxy)-N-(4-methoxyphenyl)-N-methylimidazo[1,2-a]pyrimidine-3-carboxamide] | 3 to 4 |
| CN(C(=O)c1c(-c2ccc(Cl)c(Cl)c2)nc2ncccn12)c1ccc(Cl)cc1 [compound 14, N-(4-chlorophenyl)-2-(3,4-dichlorophenyl)-N-methylimidazo[1,2-a]pyrimidine-3-carboxamide] | 3 to 4 |
| CN(C(=O)c1c(Oc2ccc(Cl)cc2)nc2ncccn12)c1ccc(Cl)cc1 [compound 48, 2-(4-chlorophenoxy)-N-(4-chlorophenyl)-N-methylimidazo[1,2-a]pyrimidine-3-carboxamide] | 2 to 3 |
| CN(C(=O)c1c(-c2ccc(S(=O)(=O)N(C)C)cc2)nc2ncccn12)c1ccc(Cl)cc1 [compound 37, N-(4-chlorophenyl)-2-[4-(dimethylsulfamoyl)phenyl]-N-methylimidazo[1,2-a]pyrimidine-3-carboxamide] | 1.5 to 2 |
| CN(C(=O)c1c(-c2ccccc2)nc2ncccn12)c1cccc(Cl)c1 [Compound no. 2, N-(3-chlorophenyl)-N-methyl-2-phenylimidazo[1,2-a]pyrimidine-3-carboxamide] | 3 to 4 |
| COc1ccc(-c2nc3ncccn3c2C(=O)N(C)c2ccc(F)c(Cl)c2)cc1F [compound 45, N-(3-chloro-4-fluorophenyl)-2-(3-fluoro-4-methoxyphenyl)-N-methylimidazo[1,2-a]pyrimidine-3-carboxamide] | > 4 |
| COc1ccc(-c2nc3ncccn3c2C(=O)N(C)c2ccc(Cl)cc2)cc1OC [compound 10, N-(4-chlorophenyl)-2-(3,4-dimethoxyphenyl)-N-methylimidazo[1,2-a]pyrimidine-3-carboxamide] | 3 to 4 |
| CN(C(=O)c1c(-c2ccc(O)c(O)c2)nc2ncccn12)c1ccc2c(c1)CCC2 [compound 15, N-(2,3-dihydro-1H-inden-5-yl)-2-(3,4-dihydroxyphenyl)-N-methylimidazo[1,2-a]pyrimidine-3-carboxamide] | 2 to 3 |
| COc1ccc(-c2nc3ncccn3c2C(=O)N(C)c2ccc(Cl)cc2)cc1 [compound 16, N-(4-chlorophenyl)-2-(4-methoxyphenyl)-N-methylimidazo[1,2-a]pyrimidine-3-carboxamide] | 2 to 3 |
| CN(C(=O)c1c(-c2ccccc2C(F)(F)F)nc2ncccn12)c1ccc(Cl)cc1 [compound 23, N-(4-chlorophenyl)-N-methyl-2-[2-(trifluoromethyl)phenyl]imidazo[1,2-a]pyrimidine-3-carboxamide] | 3 to 4 |

More lines, now with the values ahead:

| fold induction at 10 µM | SMILES |
| --- | --- |
| 2 to 3 | CN(C(=O)c1c(-c2cccc(C#N)c2)nc2ncccn12)c1ccc(F)cc1 [compound 35, 2-(3-cyanophenyl)-N-(4-fluorophenyl)-N-methylimidazo[1,2-a]pyrimidine-3-carboxamide] |
| 3 to 4 | CN(C(=O)c1c(-c2ccc(F)cc2)nc2ncccn12)c1ccc2c(c1)CCC2 [Compound no. 6, N-(2,3-dihydro-1H-inden-5-yl)-2-(4-fluorophenyl)-N-methylimidazo[1,2-a]pyrimidine-3-carboxamide] |
| 2 to 3 | CN(C(=O)c1c(-c2ccc(O)c(F)c2)nc2ncccn12)c1ccc(F)cc1 [compound 42, 2-(3-fluoro-4-hydroxyphenyl)-N-(4-fluorophenyl)-N-methylimidazo[1,2-a]pyrimidine-3-carboxamide] |
| 2 to 3 | CN(C(=O)c1c(Oc2ccc(F)cc2)nc2ncccn12)c1ccc(F)cc1F [Compound no. 46, N-(2,4-difluorophenyl)-2-(4-fluorophenoxy)-N-methylimidazo[1,2-a]pyrimidine-3-carboxamide] |
| 3 to 4 | COc1ccc(-c2nc3ncccn3c2C(=O)N(C)c2ccc(Cl)cc2)cc1F [compound 44, N-(4-chlorophenyl)-2-(3-fluoro-4-methoxyphenyl)-N-methylimidazo[1,2-a]pyrimidine-3-carboxamide] |
| > 4 | CN(C(=O)c1c(-c2ccc(Cl)cc2)nc2ncccn12)c1ccc(Cl)cc1 [Compound no. 5, N,2-bis(4-chlorophenyl)-N-methylimidazo[1,2-a]pyrimidine-3-carboxamide] |
| 2 to 3 | CN(C(=O)c1c(-c2ccc(Cl)cc2)nc2ncccn12)c1ccc(F)cc1 [compound 18, 2-(4-chlorophenyl)-N-(4-fluorophenyl)-N-methylimidazo[1,2-a]pyrimidine-3-carboxamide] |
| 2 to 3 | COc1ccc(-c2nc3ncccn3c2C(=O)N(C)c2ccc(F)cc2)cc1F [compound 41, 2-(3-fluoro-4-methoxyphenyl)-N-(4-fluorophenyl)-N-methylimidazo[1,2-a]pyrimidine-3-carboxamide] |
| 1.5 to 2 | O=C(Nc1ccc(Cl)cc1)c1c(-c2ccc(F)cc2)nc2ncccn12 [compound 32, N-(4-chlorophenyl)-2-(4-fluorophenyl)imidazo[1,2-a]pyrimidine-3-carboxamide] |
| 1.5 to 2 | O=C(Nc1ccc(F)cc1F)c1c(-c2ccc(F)cc2)nc2ncccn12 [compound 39, N-(2,4-difluorophenyl)-2-(4-fluorophenyl)imidazo[1,2-a]pyrimidine-3-carboxamide] |
| 1.5 to 2 | COc1ccc(-c2nc3ncccn3c2C(=O)N(C)c2ccc(F)cc2F)cc1F [compound 43, N-(2,4-difluorophenyl)-2-(3-fluoro-4-methoxyphenyl)-N-methylimidazo[1,2-a]pyrimidine-3-carboxamide] |
| 2 to 3 | CN(C(=O)c1c(-c2ccc(F)cc2)nc2ncccn12)c1ccc(F)cc1F [compound 40, N-(2,4-difluorophenyl)-2-(4-fluorophenyl)-N-methylimidazo[1,2-a]pyrimidine-3-carboxamide] |
| 1.5 to 2 | CN(C(=O)c1c(-c2ccc(Cl)cc2)nc2ncccn12)c1ccc(O)c(O)c1 [compound 27, 2-(4-chlorophenyl)-N-(3,4-dihydroxyphenyl)-N-methylimidazo[1,2-a]pyrimidine-3-carboxamide] |
| 2 to 3 | CN(C(=O)c1c(-c2ccccc2)nc2ncccn12)c1ccc(F)cc1 [compound 26, N-(4-fluorophenyl)-N-methyl-2-phenylimidazo[1,2-a]pyrimidine-3-carboxamide] |
| 1.5 to 2 | COc1ccc(NC(=O)c2c(-c3ccc(F)cc3)nc3ncccn23)c(OC)c1 [compound 34, N-(2,4-dimethoxyphenyl)-2-(4-fluorophenyl)imidazo[1,2-a]pyrimidine-3-carboxamide] |
| 3 to 4 | CN(C(=O)c1c(-c2ccc(Cl)cc2Cl)nc2ncccn12)c1ccc(F)cc1 [compound 21, 2-(2,4-dichlorophenyl)-N-(4-fluorophenyl)-N-methylimidazo[1,2-a]pyrimidine-3-carboxamide] |
